The subject of series [1] is CMV-EE210 cell line containing the epigenetically silenced GFP transgene. The series can be described thus: Cell-based GFP assay for demethylating activity (reactivation of silenced GFP transgene). As to conditions: for GFP Expression Level: test compound 30-50 μM, decitabine at 11 M (so in the source), three days; for pIC50: read-out: GFP IC50. The protocol:
(§1) The demethylating activity of non-bis-quaternary 4-anilinoquinolines were tested in a cell-based GFP (green fluorescent protein) assay. This assay has a GFP gene regulated by the CMV promoter and is sensitive to the methylation of CpG sites within the promoter. A decrease in methylation resulting from exposure to a methylation inhibitor leads to GFP expression and is readily scored. Specifically, the CMV-EE210 cell line containing the epigenetically silenced GFP transgene was used to assay for reactivation of GFP expression by flow cytometry. CMV-EE210 was made by transfecting NIH 3T3 cells with the pTR-UF/UF1/UF2 plasmid (Zolotuhin et al., 1996), which is comprised of pBS(+) (Stratagene, Inc.) containing a cytomegalovirus (CMV) promoter driving a humanized GFP gene adapted for expression in mammalian cells. After transfection, high-level GFP expressing cells were initially selected by FACS analysis and sorting using a MoFlo cytometer (Cytomation, Inc.). […] To screen for reactivation of CMV-EE210, decitabine (at […]) or a test compound (at a concentration of 30-50 μM) was added to complete medium (phenol red free DMEM (Gibco, Life Technologies) supplemented with 10% fetal bovine serum (Hyclone)). Cells were then seeded to 30% confluence (˜5000 cell/well) in 96 well plate containing the test compounds and grown for three days in at 37° C. in 5% CO2. The plates were examined under a fluorescent microscope using a 450-490 excitation filter (13 filter cube, Leica, Deerfield Ill.). Wells were scored g1 positive if 10% of viable cells express GFP, g2 positive if 30% of viable cells express GFP and g3 if greater than 75% of the viable cells express GFP. GFP IC 50 is the concentration of an inhibitor that (like an IC50) is the dose at which the GFP expression level goes from g3 to g1/2.

In another series the test system is CMV-EE210 cell line. The series can be described thus: Toxicity (TD50, cell viability) reported with the GFP assay. As to conditions: for TD50: Dose at which cells are >50% viable. The protocol: as §1
The target in a further series is DNMT1 (Homo sapiens, UniProt P26358). The series can be described thus: Selective depletion of DNMT1 by Western blot in treated HCT116 cells. It counts as cell-based. More on the design: Protein extracts (equivalent to 100 μg) were isolated from HCT116 cells; endogenous in cells; host or cells: HCT116. To be noted: for % DNMT1 protein level remaining at 5 µM: HCT-116, 5 μM; for % DNMT1 protein level remaining at 10 µM: HCT-116, 10 μM; for % DNMT1 protein level remaining at 100 µM: HCT-116, 100 μM. The text has this: Biol. 2005, 11, 4727-41.]. For DNMT1, commercially available antibodies from Santa Cruz or New England Biolabs were used.
Chain of DNMT1 (P26358 whole entry): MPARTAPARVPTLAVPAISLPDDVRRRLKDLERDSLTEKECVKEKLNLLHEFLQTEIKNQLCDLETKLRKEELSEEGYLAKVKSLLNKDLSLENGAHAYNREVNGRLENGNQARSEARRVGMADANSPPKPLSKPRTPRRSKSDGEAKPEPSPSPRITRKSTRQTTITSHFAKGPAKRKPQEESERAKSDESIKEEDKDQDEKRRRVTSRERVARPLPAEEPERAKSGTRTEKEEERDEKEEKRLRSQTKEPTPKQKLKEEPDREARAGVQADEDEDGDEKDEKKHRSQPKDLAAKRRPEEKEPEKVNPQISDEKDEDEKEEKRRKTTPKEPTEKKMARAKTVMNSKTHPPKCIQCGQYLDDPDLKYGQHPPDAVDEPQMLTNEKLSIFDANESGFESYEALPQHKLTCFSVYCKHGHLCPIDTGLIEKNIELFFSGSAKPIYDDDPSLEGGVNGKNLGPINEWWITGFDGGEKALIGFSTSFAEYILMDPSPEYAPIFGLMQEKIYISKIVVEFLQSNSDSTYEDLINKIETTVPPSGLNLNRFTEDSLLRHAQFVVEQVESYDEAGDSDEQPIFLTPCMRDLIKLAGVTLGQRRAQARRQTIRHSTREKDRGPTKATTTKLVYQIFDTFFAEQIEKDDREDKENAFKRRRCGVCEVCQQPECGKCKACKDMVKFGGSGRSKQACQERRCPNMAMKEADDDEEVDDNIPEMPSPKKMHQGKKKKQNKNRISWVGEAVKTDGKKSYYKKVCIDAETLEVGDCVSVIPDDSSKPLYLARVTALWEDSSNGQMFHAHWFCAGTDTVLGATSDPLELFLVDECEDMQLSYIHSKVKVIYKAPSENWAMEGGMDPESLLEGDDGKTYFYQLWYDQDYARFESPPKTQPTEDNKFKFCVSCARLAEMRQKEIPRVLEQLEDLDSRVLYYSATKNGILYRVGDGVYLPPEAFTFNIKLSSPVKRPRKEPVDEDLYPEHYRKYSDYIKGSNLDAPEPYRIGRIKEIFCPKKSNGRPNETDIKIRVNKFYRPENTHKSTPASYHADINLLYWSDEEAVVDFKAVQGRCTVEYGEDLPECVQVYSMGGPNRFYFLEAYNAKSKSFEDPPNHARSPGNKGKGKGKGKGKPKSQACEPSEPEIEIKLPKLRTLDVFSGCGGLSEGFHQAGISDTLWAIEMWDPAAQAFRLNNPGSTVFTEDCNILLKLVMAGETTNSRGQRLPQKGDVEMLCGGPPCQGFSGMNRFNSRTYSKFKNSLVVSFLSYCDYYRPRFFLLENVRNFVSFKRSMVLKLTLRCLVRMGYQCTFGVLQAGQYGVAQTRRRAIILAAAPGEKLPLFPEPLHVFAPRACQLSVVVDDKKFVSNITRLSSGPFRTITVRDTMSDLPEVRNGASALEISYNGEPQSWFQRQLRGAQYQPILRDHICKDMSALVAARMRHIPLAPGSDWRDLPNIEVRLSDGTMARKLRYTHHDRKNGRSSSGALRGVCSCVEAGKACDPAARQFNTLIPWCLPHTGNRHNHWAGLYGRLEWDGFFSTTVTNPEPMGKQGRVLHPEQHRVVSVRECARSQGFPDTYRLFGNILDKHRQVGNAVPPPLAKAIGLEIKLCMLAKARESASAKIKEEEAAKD
In general terms: Immunoblotting shows a protein as a band on a membrane.

Where [2] appears, read: dose at which the GFP expression level goes from g3 to g1/2.

pIC50: −log10 of the molar value. Counter-ions that a name gives are not always drawn. Like-named read-outs stand apart in the source and are kept apart here.

Regarding `C[n+]1ccc(Nc2ccc(C(=O)Nc3ccc(Nc4ccnc5ccccc45)cc3)cc2)cc1.Cl.[Cl-]` [Cpd. D, 4-[4-({4-[(1-methyl-4-pyridiniumyl)amino]benzoyl}amino)anilino]quinolinium dichloride], in series [1], the “GFP Expression Level” value is listed as “g1 (g1 positive if 10% of viable cells express GFP)”. In addition, in the series on CMV-EE210 cell line, the TD50 is 12.5 µM. Moreover, the “% DNMT1 Level” value came to 131% at DNMT1 (5 μM), 103% at DNMT1 (10 μM) and 74% at DNMT1 (100 μM).
For the compound `Cc1cc(Nc2ccc(NC(=O)c3ccc(Nc4ccnc5ccccc45)cc3)cc2)nc(N)n1` [Cpd. E, N-(4-(2-amino-6-methylpyrimidin-4-ylamino)phenyl)-4-(quinolin-4-ylamino)benzamide hydrochloride], in series [1], the pIC50 was 4.92 and the “GFP Expression Level” value is “g1 (g1 positive if 10% of viable cells express GFP)”. The same compound came in with a TD50 in the series with CMV-EE210 cell line of 25 µM. The “% DNMT1 Level” value on DNMT1 (5 μM) is 11%. The “% DNMT1 Level” value on DNMT1 (10 μM) was determined as 0.5%.
Take `C[n+]1ccc(Nc2ccc(C(=O)Nc3ccc(Nc4ccnc5ccc(N)cc45)cc3)cc2)cc1` [Cpd. N, 4-[4-({4-[(6-amino-4-quinolinyl)amino]anilino}carbonyl)anilino]-1-methylpyridinium chloride]: in series [1], the pIC50 is 4.00 and the “GFP Expression Level” value is reported as “g2 (g2 positive if 30% of viable cells express GFP)”. Further, the TD50 in the series with CMV-EE210 cell line was 50 µM. At DNMT1, the % DNMT1 protein level remaining at 5 µM was determined as 160%, the % DNMT1 protein level remaining at 10 µM stood at 152% and the % DNMT1 protein level remaining at 100 µM stood at 130%.
For `C[n+]1ccc(Nc2cccc(C(=O)Nc3ccc(Nc4ccnc5cc(N)ccc45)cc3)c2)cc1.Cl.[Cl-]` [Cpd. X, 7-amino-4-[4-({3-[(1-methyl-4-pyridiniumyl)amino]benzoyl}amino)anilino]quinolinium dichloride], the pIC50 in series [1] (setting [2]) is 4.30. Further, the “GFP Expression Level” value in series [1] is recorded as “g2 (g2 positive if 30% of viable cells express GFP)”. The TD50 with CMV-EE210 cell line was found to be 25 µM. For the same compound, the results for the “% DNMT1 Level” value at DNMT1 (5 μM), at DNMT1 (10 μM) and on DNMT1 (100 μM) were 49%, 98% and 73%, respectively.
`C[n+]1ccc(Nc2ccc(C(=O)Nc3ccc(Nc4ccnc5cc(N)ccc45)cc3)cc2)cc1` [Cpd. Y, 4-[4-({4-[(7-amino-4-quinolinyl)amino]anilino}carbonyl)anilino]-1-methylpyridinium chloride]: in series [1], the pIC50 was 4.00 and the “GFP Expression Level” value was “g1 (g1 positive if 10% of viable cells express GFP)”. This compound also registered a TD50 in the series with CMV-EE210 cell line of 25 µM. Further, on DNMT1, the % DNMT1 protein level remaining at 5 µM was 93%, the % DNMT1 protein level remaining at 10 µM stood at 63% and the % DNMT1 protein level remaining at 100 µM was determined as 77%.
For the compound `CN(C)c1ccc2c(Nc3ccc(C(=O)Nc4cccc(Nc5cc[n+](C)cc5)c4)cc3)ccnc2c1.Cl.[Cl-]` [Cpd. Z, 7-(dimethylamino)-4-[4-({3-[(1-methyl-4-pyridiniumyl)amino]anilino}carbonyl)anilino]quinolinium dichloride], the pIC50 in series [1] (setting [2]) was 6.00. The “toxicity relative to decitabine” value in the series on CMV-EE210 cell line is recorded as “less than one-half as toxic as decitabine”. In addition, in the series with CMV-EE210 cell line, the TD50 was 25 µM. The “% DNMT1 Level” value on DNMT1 (5 μM) was 83%; on DNMT1 (10 μM), 115%; on DNMT1 (100 μM), 87%.
With `Nc1ncn([C@H]2C[C@H](O)[C@@H](CO)O2)c(=O)n1` [Decitabine, 5-aza-2′-deoxycytidine, reference compound], the pIC50 in series [1] (setting [2]) was 6.41. In addition, the TD50 in the series with CMV-EE210 cell line was found to be 12.5 µM. The % DNMT1 protein level remaining at 5 µM at DNMT1 lay within 0 to 5%.

A word on the pIC50: it is −log10 of the IC50, conventionally taken in molar units.

Source of the values: patent publication US7939546B2, “Quinoline derivatives for modulating DNA methylation” (SuperGen, Inc., priority 2007, dated 2011).
